From patent publication US9265253B2, “Use of macrocyclic picolinamides as fungicides” (DOW AGROSCIENCES LLC, priority 2013, dated 2016)

How the values were obtained:
Format in all cases: in vivo
[1] = system: Blumeria graminis f. sp. hordei; Synonym: Erysiphe graminis f. sp. hordei; assay: Barley Powdery Mildew (ERYSGH) disease control; conditions: 1 Day Protectant; for pest or weed control at 100 ppm: Blumeria graminis, 24 h, read-out: Disease Control ERYSGH 1 DP
Method: Technical grades of materials were dissolved in acetone, which were then mixed with nine volumes of water containing 110 ppm Triton X-100. The fungicide solutions were applied onto wheat seedlings using an automated booth sprayer to run-off. All sprayed plants were allowed to air dry prior to further handling. All fungicides were evaluated using the aforementioned method for their activity vs. all target diseases. Wheat leaf blotch and brown rust activity were also evaluated using track spray applications, in which case the fungicides were formulated as EC formulations, containing 0.1% Trycol 5941 in the spray solutions. Wheat plants (variety Yuma) were grown from seed in a greenhouse in 50% mineral soil/50% soil-less Metro mix until the first leaf was fully emerged, with 7-10 seedlings per pot. These plants were inoculated with an aqueous spore suspension of Septoria tritici either prior to or after fungicide treatments. After inoculation the plants were kept in 100% relative humidity (one day in a dark dew chamber followed by two to three days in a lighted dew chamber at 20° C.) to permit spores to germinate and infect the leaf. The plants were then transferred to a greenhouse set at 20° C. for disease to develop. When disease symptoms were fully expressed on the 1st leaves of untreated plants, infection levels were assessed on a scale of 0 to 100 percent disease severity. Percent disease control was calculated using the ratio of disease severity on treated plants relative to untreated plants. Barley seedlings (variety Harrington) were propagated in soil-less Metro mix, with each pot having 8 to 12 plants, and used in the test when first leaf was fully emerged. Test plants were inoculated by dusting with infected stock plants 24 hr after fungicide treatments. After inoculation the plants were kept in a greenhouse set at 20° C. for disease to develop. Fungicide formulation, application and disease assessment on the sprayed leaves followed the procedures as described in the Example A.

[2] = system: Alternaria solani; assay: Tomato Early Blight (ALTESO) disease control; conditions: Alternaria solani, topical, 24 h, 1 Day Protectant, read-out: Disease Control ALTESO 1 DP
Method: Technical grades of materials were dissolved in acetone, which were then mixed with nine volumes of water containing 110 ppm Triton X-100. The fungicide solutions were applied onto wheat seedlings using an automated booth sprayer to run-off. All sprayed plants were allowed to air dry prior to further handling. All fungicides were evaluated using the aforementioned method for their activity vs. all target diseases. Wheat leaf blotch and brown rust activity were also evaluated using track spray applications, in which case the fungicides were formulated as EC formulations, containing 0.1% Trycol 5941 in the spray solutions. Wheat plants (variety Yuma) were grown from seed in a greenhouse in 50% mineral soil/50% soil-less Metro mix until the first leaf was fully emerged, with 7-10 seedlings per pot. These plants were inoculated with an aqueous spore suspension of Septoria tritici either prior to or after fungicide treatments. After inoculation the plants were kept in 100% relative humidity (one day in a dark dew chamber followed by two to three days in a lighted dew chamber at 20° C.) to permit spores to germinate and infect the leaf. The plants were then transferred to a greenhouse set at 20° C. for disease to develop. When disease symptoms were fully expressed on the 1st leaves of untreated plants, infection levels were assessed on a scale of 0 to 100 percent disease severity. Percent disease control was calculated using the ratio of disease severity on treated plants relative to untreated plants. Tomato plants (variety Outdoor girl) were propagated in soil-less Metro mix, with each pot having one plant, and used when 12 to 14 days old. Test plants were inoculated with an aqueous spore suspension of Alternaria solani 24 hr after fungicide treatments. After inoculation the plants were kept in 100% relative humidity (one day in a dark dew chamber followed by two to three days in a lighted dew chamber at 20° C.) to permit spores to germinate and infect the leaf. The plants were then transferred to a growth room at 22° C. for disease to develop. Fungicide formulation, application and disease assessment on the sprayed leaves followed the procedures as described in the Example A.

[3] = system: Leptosphaeria nodorum; assay: Wheat Glume Blotch (LEPTNO) disease control; conditions: Parastagonospora nodorum, topical, 24 h, 1 Day Protectant, read-out: Disease Control LEPTNO 1 DP
Method: Technical grades of materials were dissolved in acetone, which were then mixed with nine volumes of water containing 110 ppm Triton X-100. The fungicide solutions were applied onto wheat seedlings using an automated booth sprayer to run-off. All sprayed plants were allowed to air dry prior to further handling. All fungicides were evaluated using the aforementioned method for their activity vs. all target diseases. Wheat leaf blotch and brown rust activity were also evaluated using track spray applications, in which case the fungicides were formulated as EC formulations, containing 0.1% Trycol 5941 in the spray solutions. Wheat plants (variety Yuma) were grown from seed in a greenhouse in 50% mineral soil/50% soil-less Metro mix until the first leaf was fully emerged, with 7-10 seedlings per pot. These plants were inoculated with an aqueous spore suspension of Septoria tritici either prior to or after fungicide treatments. After inoculation the plants were kept in 100% relative humidity (one day in a dark dew chamber followed by two to three days in a lighted dew chamber at 20° C.) to permit spores to germinate and infect the leaf. The plants were then transferred to a greenhouse set at 20° C. for disease to develop. When disease symptoms were fully expressed on the 1st leaves of untreated plants, infection levels were assessed on a scale of 0 to 100 percent disease severity. Percent disease control was calculated using the ratio of disease severity on treated plants relative to untreated plants. Wheat plants (variety Yuma) were grown from seed in a greenhouse in 50% mineral soil/50% soil-less Metro mix until the first leaf was fully emerged, with 7-10 seedlings per pot. These plants were inoculated with an aqueous spore suspension of Leptosphaeria nodorum 24 hr after fungicide treatments. After inoculation the plants were kept in 100% relative humidity (one day in a dark dew chamber followed by two days in a lighted dew chamber at 20° C.) to permit spores to germinate and infect the leaf. The plants were then transferred to a greenhouse set at 20° C. for disease to develop. Fungicide formulation, application and disease assessment followed the procedures as described in the Example A.

| Structure (SMILES) | pest or weed control at 100 ppm [1] [%] | pest or weed control at 100 ppm [2] [%] | pest or weed control at 100 ppm [3] [%] | Disease Control ERYSGH 1 DP ([1]; 100 ppm) |
| --- | --- | --- | --- | --- |
| COCC[C@H]1CCC[C@H](NC(=O)c2nccc(OC)c2OC(C)=O)C(=O)O[C@@H](C)[C@@H]1Oc1ccccc1 [Compound F78] | 0 to 80 | 0 to 80 | 80 to 100 |  |
| CCCO[C@@H]1[C@@H](CCC(C)C)CCC[C@H](NC(=O)c2nccc(OC)c2OC(C)=O)C(=O)O[C@H]1C [Compound F64] | 80 to 100 | 80 to 100 | 80 to 100 |  |
| COc1ccnc(C(=O)N[C@H]2CCC[C@H](CCF)[C@@H](OCC(C)C)[C@H](C)OC2=O)c1OCOC(C)=O [Compound F128, ((2-(((3S,7R,8R,9S)-7-(2-fluoroethyl)-8-isobutoxy-9-methyl-2-oxooxonan-3-yl)carbamoyl)-4-methoxypyridin-3-yl)oxy)methyl acetate] | 0 to 80 | 80 to 100 | 80 to 100 |  |
| COc1ccnc(C(=O)N[C@H]2CCC[C@H](Cc3ccccc3)[C@@H](OCC(C)C)[C@H](C)OC2=O)c1OCOC(=O)C(C)C [Compound F151] | 80 to 100 | 80 to 100 | 80 to 100 |  |
| COc1ccnc(C(=O)N[C@H]2CCC[C@H](Cc3ccc(F)cc3)[C@@H](OCC3CC3)[C@H](C)OC2=O)c1OC(C)=O [Compound F67] | 80 to 100 | 80 to 100 | 80 to 100 |  |
| CCCO[C@@H]1[C@@H](CCC(C)C)CCC[C@H](NC(=O)c2nccc(OC)c2OCOC(=O)COCC)C(=O)O[C@H]1C [Compound F161] | 80 to 100 | 80 to 100 | 80 to 100 |  |
| CCOCC(=O)OCOc1c(OC)ccnc1C(=O)N[C@H]1CCC[C@H](CCF)[C@@H](OCC(C)C)[C@H](C)OC1=O [Compound F181] | 0 to 80 | 80 to 100 | 80 to 100 |  |
| CCCO[C@@H]1[C@@H](Cc2ccccc2)CCC[C@H](NC(=O)c2nccc(OC)c2OC(C)=O)C(=O)O[C@H]1C [Compound F88] | 80 to 100 | 80 to 100 | 80 to 100 |  |
| CCOCC(=O)OCOc1c(OC)ccnc1C(=O)N[C@H]1CCC[C@H](Cc2ccc(F)cc2F)[C@@H](OC(=O)c2ccco2)[C@H](C)OC1=O [Compound F193] | 0 to 80 | 80 to 100 | 80 to 100 |  |
| COc1ccnc(C(=O)N[C@H]2CCC[C@H](CC3CCCC3)[C@@H](OCC3CC3)[C@H](C)OC2=O)c1OCOC(C)=O [Compound F117] | 80 to 100 | 80 to 100 | 80 to 100 |  |
| COc1ccnc(C(=O)N[C@H]2CCC[C@H](Cc3ccc(F)cc3)[C@@H](OCC3CC3)[C@H](C)OC2=O)c1OCOC(C)=O [Compound F96] |  | 80 to 100 | 80 to 100 | B (More than 0-Less than 80) |
| CCCO[C@@H]1[C@@H](Cc2ccccc2)CCC[C@H](NC(=O)c2nccc(OC)c2OCOC(=O)COCC)C(=O)O[C@H]1C [Compound F174] | 80 to 100 | 80 to 100 | 80 to 100 |  |
| CCOCC(=O)OCOc1c(OC)ccnc1C(=O)N[C@H]1CCC[C@H](Cc2ccc(F)cc2)[C@@H](OCC2CC2)[C@H](C)OC1=O [Compound F164] | 80 to 100 | 80 to 100 | 80 to 100 |  |
| COCC[C@H]1CCC[C@H](NC(=O)c2nccc(OC)c2OCOC(C)=O)C(=O)O[C@@H](C)[C@@H]1Oc1ccccc1 [Compound F130] | 0 to 80 | 0 to 80 | 80 to 100 |  |
| COc1ccnc(C(=O)N[C@H]2CCC[C@H](Cc3ccc(F)cc3F)[C@@H](OCC(C)C)[C@H](C)OC2=O)c1OCOC(C)=O [Compound F145] | 80 to 100 | 80 to 100 | 80 to 100 |  |
| COc1ccnc(C(=O)N[C@H]2CCC[C@H](Cc3ccccc3)[C@@H](OCC(C)C)[C@H](C)OC2=O)c1OCOC(C)=O [Compound F106] | 80 to 100 | 80 to 100 | 80 to 100 |  |
| CCCO[C@@H]1[C@@H](CCC(C)C)CCC[C@H](NC(=O)c2nccc(OC)c2OCOC(C)=O)C(=O)O[C@H]1C [Compound F92] | 0 to 80 | 80 to 100 | 80 to 100 |  |
